From patent US11434472B2, “Agent for removing undifferentiated iPS cells” (Sumitomo Pharma Co., Ltd., priority 2016, dated 2022) come the findings set out here.

Assay type in all cases: cell-based
One data set relates to human iPS cells. The data set is described as follows: Evaluation of cytotoxic activity against iPS cells (DAPI nuclear staining, DAPI positive area). To be noted: 24 hours. On the procedure:
Human iPS cells were cultured under feeder-free condition according to the method described in Scientific Reports, 4, 3594 (2014). The StemFit medium (AKO3N, Ajinomoto) was used as feeder-free medium, and Laminin511-E8 (Nippi) was used as feeder-free scaffold.
The subconfluent human iPS cells were washed with PBS and dispersed into single cells using TrypLE Select (Life Technologies). The human iPS cells were then seeded in a plastic culture dish coated with Laminin511-E8, and cultured under feeder-free conditions at 37° C. and 5% CO2 using the StemFit medium in the presence of Y27632 (ROCK inhibitory compound, 10 μmol/L). A 96-well plate (BD, for cell culture, culture area 0.35 cm^2) was used as the plastic culture dish, and the number of plated cells for the human iPS cells dispersed into single cells was set to 0.03×10^4. The medium was changed to Y27632-free StemFit medium 1 day after the seeding. Thereafter, the medium was changed to the Y27632-free StemFit medium once in 1 to 2 days. The cells were then cultured until subconfluent (60% of culture area is covered with the cells). To the human iPS cells was added the Stem Fit medium (AK03; Ajinomoto) to adjust the final concentrations of the compounds of Examples 1-2, 10-2, and 22 dissolved in DMSO to 10, 1, 0.1, and 0.01 μmol/L, and the cells were cultured for 24 hours.
After 24 hours, the medium was removed, the obtained cells were each fixed with 4% paraformaldehyde at 4° C. for 15 minutes, PBS solution containing DAPI (Sigma) was added thereto to perform nuclear staining for the cells, and then the cells were observed by inverted fluorescence microscope (Keyence, BIREVO). In addition, the DAPI positive area was calculated using the quantitative software of the microscope.

Data set [1] relates to differentiation-inducing cell aggregates formed from human iPS cells. Description: Effect on differentiation-inducing cell aggregates (Cleaved Caspase-3 immunostaining). As to conditions: 24 hours, aggregates without treatment 19%. On the procedure: Firstly, differentiation-inducing cell aggregates were prepared according to the following procedures.
According to a similar method to that of Test Example 2, the human iPS cells one day before subconfluence were cultured under feeder free conditions using the StemFit medium (AK03; Ajinomoto) in the presence of SB431542 (TGFβ signaling pathway inhibitory compound (TGFβR-i), 5 μmol/L) for 1 day. A 6-well plate (Iwaki, for cell culture, culture area 9.4 cm^2) was used as the plastic culture dish, and the number of plated cells for the human iPS cells dispersed into single cells was set 1.0×10^4. The cells were treated with cell dispersion using TrypLE Select (Life Technologies), and dispersed into single cells by pipetting operation. The cells were then suspended in 100 μl of a serum-free medium at 1.0×10^4 cells per well of a non-cell adhesive 96-well culture plate (PrimeSurface 96V-bottom plate, manufactured by SUMITOMO BAKELITE), and cultured in suspension at 37° C. and 5% CO2. As the serum-free medium (gfCDM+KSR), a serum-free medium which is 1:1 mixture of F-12 medium and IMDM medium supplemented with 10% KSR, 450 μmol/L 1-monothioglycerol, and 1×Chemically defined lipid concentrate was used. At the time of the start of suspension culture (day 0 after the start of suspension culture), Y27632 (final concentration: 20 μmol/L) was added to the medium, and the cells was further cultured using a medium containing Wnt signaling inhibitory compound (IWR-1e, 3 μmol/L).
After culturing at 37° C. and 5% CO2 for 24 hours, the medium was changed to the serum-free medium containing the present compound in a final concentration of 0.1 μmol/L or 1 μmol/L, or DMSO in a concentration equal thereto, and the cells were cultured for additional 24 hours. After 24 hours, the obtained cell aggregates were fixed with 4% paraformaldehyde to prepare frozen sections. […] The immunostained sections were observed by inverted fluorescence microscope (Keyence, BIREVO). In addition, the Cleaved Caspase-3 positive area was calculated using the NIH Image-J software.

The subject of another data set is HCT-116 cells. The data set is described as follows: Test for inhibiting sphere-forming ability of cancer cells. As to conditions: Homo sapiens, 96 h, non-adherent serum-free sphere culture, 4 days, CellTiter-Glo, read-out: IC50 (Sphere IC50 value; concentration for 50% inhibition of cell proliferation). On the procedure:
The reliable methods established for measuring the self-renewal ability of cells which is one of the CSC's properties include a method for measuring the sphere-forming ability of cancer cells in non-adherent condition in the absence of serum (Cancer Res 65, 5506-5511 (2005)). HCT-116 cells were available from the American Type Culture Collection (ATCC). HCT-116 cells were cultured at 37° C. and 5% CO2 using the McCoy's 5a medium containing 10% fetal bovine serum (FBS), 100 U/ml penicillin, and 100 μg/ml streptomycin. HCT-116 cells were seeded in a 384 Well Black Clear Bottom Ultra-Low Attachment Microplate (Corning Cat. No. 3827) in an amount of 350-800 cells/well using the DMEM/F12 medium containing 2% B27 supplement (GIBCO), 20 ng/mL epidermal growth factor (EGF) (peprotech), 10 ng/mL basic fibroblast growth factor (bFGF) (peprotech), 5 μg/mL insulin (Sigma), and 1% penicillin/streptomycin. The test compounds were added into each well to adjust the final concentration of DMSO to 0.1%, and the cells were cultured for 4 days. The number of viable cells in each well was then measured with CeilTiter-Glo® Luminescent Cell Viability Assay (Promega) to calculate the concentration of each test compound for 50% inhibition of cell proliferation (Sphere IC50 value; μmol/L).
The experiment of Test Example 1 was performed for the compound of each Example. The concentration of each test compound for 50% inhibition of cell proliferation (Sphere IC50 value; μmol/L) is shown in the following Table.
For orientation: ATP-based viability assays read luminescence as a measure of living cells.

What is called IC50 is the concentration that gives 50% inhibition.

Take `CC(=O)Nc1ccc(/C=C/C(=O)Nc2cn(Cc3cccc(C(F)(F)F)c3)cn2)cc1.Cl` [Example 1-2, (2E)-3-[4-(Acetylamino)phenyl]-N-(1-[3-(trifluoromethyl)benzyl]-1H-imidazol-4-yl)prop-2-enamide hydrochloride]: the “ratio of viable cells to that of cells without treatment” value (“ratio … of cells without treatment” below) in the data set with human iPS cells (0.1 μmol/L) is 53%; with human iPS cells (1 μmol/L), 25%; in the data set on human iPS cells (10 μmol/L) it was 14%. In addition, in the data set with human iPS cells (tested at 10, 1, 0.1 and 0.01 μmol/L), the “concentration at which cytotoxic activity against human iPS cells was found” value is at least 0.1 µmol/L. For the same compound, the “ratio of Cleaved Caspase-3 positive area in the cell aggregates” value in data set [1] (0.1 μmol/L) was found to be 24%; in data set [1] (1 μmol/L) it was 27%.
Turning to `CC(=O)Nc1ccc(/C=C/C(=O)Nc2cn(Cc3cccc(OC(F)(F)F)c3)cn2)cc1` [Example 3], in the data set with HCT-116 cells, the IC50 was determined as 630 nM.
On the same count and under the same terms, the same measure for `O=C(/C=C/c1cccnc1)Nc1cn(Cc2cccc(Cl)c2)cn1` [Example 9, (2E)-N-(1-(3-Chlorobenzyl)-1H-imidazol-4-yl)-3-(pyridin-3-yl)prop-2-enamide]: 890 nM.
For `CC(=O)Nc1ccc(/C=C/C(=O)Nc2cn(Cc3cccc(Cl)c3)cn2)cc1` [Example 2], in the data set on HCT-116 cells, the IC50 came to 220 nM.
`O=C(Nc1nc(CO)cs1)c1cn(Cc2cc(F)c(F)c(F)c2)cn1` [Example 16]: in the data set with HCT-116 cells, the IC50 was determined as 629 nM.
Same read-out and setting: in the case of `N#Cc1ccc(/C=C/C(=O)Nc2cn(Cc3cccc(Cl)c3)cn2)cc1OCCO` [Example 8] it was 80 nM; in that of `O=C(COc1ccc(CO)nc1)Nc1cn(Cc2cc(F)c(F)c(F)c2)cn1` [Example 17], under 10 nM.
Regarding `COc1ccc(C(=O)Nc2cn(Cc3cccc(Cl)c3)cn2)cc1OC.Cl` [Example 10-2, N-[1-(3-Chlorobenzyl)-1H-imidazol-4-yl]-3,4-dimethoxybenzamide hydrochloride], the IC50 in the data set with HCT-116 cells is 630 nM. For the same compound, the entries for the “ratio … of cells without treatment” value in the data set with human iPS cells (1 μmol/L) and in the data set with human iPS cells (10 μmol/L) were 37% and 17%, respectively. Besides, in data set [1] (1 μmol/L), the “ratio of Cleaved Caspase-3 positive area in the cell aggregates” value amounted to 26%.
`COc1ccc(NC(=O)c2cn(Cc3cc(F)c(F)c(F)c3)cn2)cc1OC` [Example 14]: the IC50 in the data set with HCT-116 cells is 210 nM.
Same read-out and setting: in the case of `COc1ccc(C(=O)Nc2cn(Cc3cc(F)c(F)c(F)c3)cn2)cc1OC` [Example 13] it was 60 nM; in that of `COc1ccc(/C=C/C(=O)Nc2cn(Cc3cc(F)c(F)c(F)c3)cn2)cc1OCCO` [Example 5, (E)-3-(3-(2-Hydroxyethoxy)-4-methoxyphenyl)-N-(1-(3,4,5-trifluorobenzyl)-1H-imidazol-4-yl)acrylamide], 60 nM.
Same read-out and setting: the same measure for `COc1ccc(/C=C/C(=O)Nc2cn(Cc3cccc(Cl)c3)cn2)cc1OCCO` [Example 6, (2E)-N-[1-(3-Chlorobenzyl)-1H-imidazol-4-yl]-3-[3-(2-hydroxyethoxy)-4-methoxyphenyl]prop-2-enamide]: 60 nM.
Turning to `O=C(Nc1cn(Cc2cccc(C(F)(F)F)c2)cn1)c1ccc(CO)nc1` [Example 22, 6-(hydroxymethyl)-N-{1-[3-(trifluoromethyl)benzyl]-1H-imidazol-4-yl}nicotinamide], the “ratio … of cells without treatment” value in the data set on human iPS cells (0.1 μmol/L) is listed as 51%; in the data set with human iPS cells (1 μmol/L) it was 31%.
Regarding `COc1ccc(/C=C/C(=O)Nc2cn(Cc3cccc(C(F)(F)F)c3)cn2)cc1OCCO` [Example 7], in the data set with HCT-116 cells, the IC50 was 90 nM.
The same measure, in the same setting: the same measure for `CC(=O)Nc1ccc(/C=C/C(=O)Nc2cn(Cc3cc(F)c(F)c(F)c3)cn2)cc1` [Example 4]: under 10 nM.
